Laboratory results reported in patent US12391646B2, “Using adiponectin receptor agonists to treat inflammation and bone diseases in diabetes” (Trustees of Tufts College, priority 2020, dated 2025).

Columns and labels:
DIO mice = assay: Systemic inflammation in DIO mice, oral gavage 14 days; format: in vivo; conditions: AdipoAI 25 mg/kg; for mRNA expression of IL-6 and IL-1β in WAT, spleen, bone marrow / serum levels of IL-6 and IL-1β: oral gavage 14 days, APR 50 mg/kg
Description: FIG. 3 AdipoAI decreases inflammation in DIO mice (n=6). DIO mice were orally gavaged with APR (50 mg/kg) or AdipoAI (25 mg/kg) for 14 days, and control animals (WT or DIO mice) were administered with equivalent volumes of DMSO. mRNA expression levels of pro-inflammatory cytokines in (a) WAT, (b) spleen and (c) bone marrow were measured by qRT-PCR and normalized to the level of β-actin mRNA. Data are expressed as mean±SEM. (d) Serum levels of IL-6 and IL-1β were measured by ELISA. Data are expressed as mean #SEM. Representative images of H&E (e) and IHC of F4/80 staining (f) of spleen tissue in DIO mice (n=6). Red arrow indicates multinucleated giant cells (megakaryocytes). One-way ANOVA test for multiple-group comparisons, * vs. WT-vehicle group, # vs. DIO-vehicle group. */#P<0.05, significant differences between each indicated group. ns, not significant.
The Ethics Committee on the Use and Care of Animals at Tufts University approved the study protocol (Boston, MA, USA). The animals received humane care according to the criteria outlined in the Guide for the Care and Use of Laboratory Animals prepared by the National Academy of Sciences and published by the National Institutes of Health. All experiments involving animals or animal tissue are reported in compliance with the guidelines of ARRIVE and BJP (Kilkenny et al., 2010; McGrath and Lilley, 2015). Experimental protocols and design adhere to BJP guidelines (Curtis et al., 2015). Wild-type (WT, C57BL/6J, Jax #000664), DIO (Jax #380050), and APN KO (Jax #008195) mice were purchased from the Jackson Laboratory. The DIO mice were fed with a high-fat diet (containing 60% kcal from fat; Jackson Laboratory) at 6 weeks of age and later. The WT mice were fed with ordinary diet as normal chow (NC)-fed mice, and APN KO mice were maintained and fed with an NC diet as previously described (Tu et al., 2011). For the LPS-induced endotoxemia model, male C57BL/6 mice aged 8 weeks received oral gavage with APR (50 mg/kg body weight) or AdipoAI (25 mg/kg body weight) for 24 h before by LPS (20 mg/kg body weight) treatment which was administered intraperitoneally whereas control animals were treated with equivalent volumes of normal PBS. Mouse survival in each group was monitored and recorded up to 84 h. All mice were killed at 1 h for detection of activation of inflammatory genes, at 6 h for determination of inflammatory factors in serum, and at 24 h for histological evaluation. Animal data were excluded from experiments based on pre-established criteria of visible abnormal tissue structure during sample harvest or other health issues, including fighting wounds.

Raw264.7 cells = assay: CCK-8 cytotoxicity assay, 24 hours; format: cell-based; conditions: at 40 μM or lower concentrations
Description: (§1) FIG. 1 Characterization of anti-inflammatory properties of APR-like compounds. (a) Raw264.7 cells were pretreated with APR (20 μM) or new compounds 1 to 10 (5 μM) for 24 h followed by incubation with LPS (100 ng/mL) for an additional 6 h. IL-6 and IL-1β mRNA expression levels were evaluated by qPCR and normalized with GAPDH mRNA level. (b) Raw264.7 cells were pretreated with different doses of AdipoAI for 24 h followed by incubation with LPS (100 ng/mL) for additional 6 h to evaluate dose-dependency of AdipoAI in inhibiting IL-6 and IL-1β mRNA expression levels by qRT-PCR and normalized with GAPDH mRNA level. (c) Evaluation of cytotoxicity of APR, AdipoAI and compound 5 by CCK8 assay in Raw264.7 cells treated for 24 hours. (d) BMMs were pretreated with APR (20 μM), AdipoAI (5 μM) or compound 5 (5 μM) for 24 h followed by incubation with LPS (100 ng/ml) for additional 6 h for the measurement of IL-6 and IL-1β mRNA expression levels by qRT-PCR and normalized with GAPDH mRNA level. Data were expressed as the mean±SEM at five biological independent experiments. One-way ANOVA test for multiple-group comparisons, *P<0.05, significant differences between each indicated group.
Raw264.7 cells were seeded at 2×10^3 cells/well in 96-well plates for 16 hours and then serum-starved for 6 hours. Cells were maintained in DMEM in the presence of different concentrations of APR (AdipoGen Life Sciences, San Diego, CA, USA) and compounds for 24 hours. […] The detailed group assignment is shown in the individual figure legends.

[1] = system: LPS-stimulated RAW 264.7 macrophages; assay: qPCR of cytokine mRNA in LPS-stimulated RAW 264.7 macrophages; format: cell-based; conditions: for expression of proinflammatory cytokines such as IL-6 and IL-1B: LPS-induced macrophages
Description: as §1
RAW 264.7 macrophage cell line was purchased from ATCC (Manassas, VA, USA) and maintained in DMEM (Gibco, Life Technologies, Carlsbad, CA, USA) supplemented with 10% (v.v-1) FBS (Gibco, Life Technologies) and 1% (v.v-1) penicillin/streptomycin (Gibco, Life Technologies). The cells were routinely cultured in an incubator at 37° C. in a humidified atmosphere of 5% CO2.
Total RNA of cells was extracted using Quick-RNA Miniprep Kit (ZYMO Research, Irvine, CA, USA) and total RNA from mouse tissues was prepared with TriZol reagent (Life Technologies) according to the manufacturer's instructions followed by qRT-PCR assays as described previously (L. Zhang et al., 2014). 1 μg of total RNA was used for reverse transcription using the M-MLV Reverse Transcriptase (Thermo Scientific, Waltham, MA, USA) according to the manufacturer's protocol using PowerUp SYBR Green Master Mix (Thermo Scientific) on a Bio-Rad iQ5 thermal cycler (Bio-Rad Laboratories, Hercules, CA, USA). Differences in expression were evaluated by the comparative cycle threshold method using GAPDH or β-actin as a control. The primer sequences used for the qRT-PCR experiments are listed in supplemental Table 1.
Macrophages were seeded at a density of 5×10^5 cells/well in 12-well plates. After overnight incubation, the cells were transfected for 24 h with siRNAs targeting specific genes or scrambled control siRNAs using HiPerFect Transfection Reagent (Qiagen, Hilden, Germany) according to the manufacturer's guidelines. Gene silencing efficiency was monitored by qPCR or Western blot analysis. The siRNA duplexes used in this study were chemically synthesized by Thermo Scientific.

Row | SMILES | mRNA expression of IL-6 and IL-1β in WAT, spleen, bone marrow (DIO mice) | serum levels of IL-6 and IL-1β (DIO mice) | cytotoxic effects (CCK-8) (Raw264.7 cells) | expression of proinflammatory cytokines such as IL-6 and IL-1B [1] | megakaryocytes and macrophages in spleen (H&E, IHC F4/80) (DIO mice; 14 days) | dependence of inhibition of proinflammatory cytokine mRNA on AdipoRs and APPLs (siRNA) ([1]; Raw264.7 cells transfected with siRNA) | inhibition of IL-6 and IL1-β mRNA expression ([1]; compounds at 5 μM vs APR at 20 μM, 24 h pretreatment, then LPS 100 ng/mL 6 h) | anti-inflammatory efficacy relative to APR ([1]; in macrophages, estimated) | LPS-stimulated IL-6 and IL-1β mRNA expression, dose-dependency ([1]; increasing concentrations, 24 h, then LPS 100 ng/mL 6 h)
1 | O=C(COc1ccc(C(=O)c2ccccc2)cc1)NC1CCN(Cc2ccccc2)CC1 [AdipoRon, reference compound] | inhibited the expression levels of IL-6 and IL-1β | inhibited the expression levels of IL-6 and IL-1β | neither of the 3 small molecules mediated significant cytotoxic effects | inhibited expression of proinflammatory cytokines such as IL-6 and IL-1B |  |  |  |  | 
2 | COc1ccc(CN2CCC(NC(=O)COc3ccc(C(=O)c4ccc(Cl)cc4)cc3)CC2)cc1 [Compound 3] | inhibited mRNA expression of IL-6 (Il6) and IL-1β (Il1β) | reduced IL-6 and IL-1β levels in the serum | neither of the 3 small molecules mediated significant cytotoxic effects | inhibited expression of proinflammatory cytokines such as IL-6 and IL-1B | decreased quantity of megakaryocytes and macrophages | prevented by AdipoR1 and APPL1 suppression, but not AdipoR2 or APPL2 | stronger inhibitory effects than APR | about 8 times | decreased LPS-stimulated IL-6 and IL-1β mRNA expression in a dose-dependent fashion
